Measurements published in patent US10344019B2 (priority 2010, dated 2019).
pEC50: −log10 of the molar value. Like-named read-outs stand apart in the source and are kept apart here.

Experiments:
Type in all cases: cell-based
[1] = tested on: HCV 1a RLuc cells (dicistronic genotype 1a H77 replicon, RLuc reporter); assay: microbe, parasite or virus in culture; conditions: Hepatitis C virus, read-out: 1a
Procedure, shortened: (§1)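 Renilla luciferase HCV replicon cells: dicistronic 1b Con1, 1a H77 or 2a JFH-1 replicons, or a JFH-1 chimera carrying J6 NS5A (M31 present). Compound in DMSO serial dilutions, 72 h incubation, then lysis and luciferase read. EC50 by non-linear regression.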

[2] = tested on: HCV 1b RLuc cells (dicistronic genotype 1b Con1 replicon, RLuc reporter); assay: microbe, parasite or virus in culture; conditions: Hepatitis C virus, read-out: 1b (nM)
Procedure, shortened: as §1

[3] = tested on: HCV 2a JFH-1 Rluc cells (dicistronic genotype 2a JFH-1 replicon, RLuc reporter); assay: microbe, parasite or virus in culture; conditions: Hepatitis C virus, genotype 2a JFH-1 replicon, read-out: 2a JFH
Procedure, shortened: as §1

[4] = tested on: HCV 3a RLuc cells (NS5A chimeric genotype 1b Con1 replicon with consensus genotype 3a NS5A gene); assay: microbe, parasite or virus in culture; conditions: Hepatitis C virus
Procedure, shortened: (§2)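 Replicon cells stably carrying the listed RLuc-encoding dicistronic replicons were seeded and treated with DMSO serial dilutions of compound (10 mM stocks) diluted into culture medium. After 72 h, cells were lysed and Renilla luciferase activity measured. EC50 was derived by non-linear regression.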

[5] = tested on: HCV 4a Rluc cells (NS5A chimeric genotype 1b Con1 replicon with genotype 4a NS5A gene); assay: microbe, parasite or virus in culture; conditions: Hepatitis C virus, read-out: 4a
Procedure, shortened: as §2

[6] = tested on: HCV 2a Rluc cells (NS5A chimeric genotype 2a JFH-1 replicon with genotype 2a J6 strain NS5A gene, M31 present); assay: HCV replicon reporter assay, genotype 2a J6 (M31 present); conditions: Hepatitis C virus, read-out: 2a J6
Procedure: Evaluation of cell-based anti-HCV activity: Antiviral potency (EC50) was determined using a Renilla luciferase (RLuc)-based HCV replicon reporter assay. To perform the assay for genotype 1 and 2a JFH-1, HCV 1b RLuc cells (harboring a dicistronic genotype 1b Con1 replicon that encodes a RLuc reporter), or HCV 1a RLuc cells (harboring a dicistronic genotype 1a H77 replicon that encodes a RLuc reporter), or HCV 2a JFH-1 Rluc cells (harboring a dicistronic genotype 2a JFH-1 replicon that encodes a RLuc reporter) were dispensed into 384-well plates. To perform the assay for genotype 2a (with M31 present) or 2b, HCV 2a Rluc or 2b Rluc cells (both with M31 present) harboring a dicistronic NS5A chimeric genotype 2a JFH-1 replicon that encodes a RLuc reporter and either genotype 2a J6 strain NS5A gene or genotype 2b MD2b-1 NS5A gene (based on Los Alamos HCV database isolates, both with M31 present) respectively, were dispensed into 384-well plates. To perform the assay for genotype 3 and 4, HCV 3a RLuc or 4a Rluc cells harboring a dicistronic NS5A chimeric genotype 1b Con1 replicon that encodes a RLuc reporter and either a consensus genotype 3a NS5A gene or genotype 4a NS5A gene (based on Los Alamos HCV database isolates) respectively, were dispensed into 384-well plates. Compounds were re-suspended in DMSO at a concentration of 10 mM and serially diluted in DMSO either manually or using an automated pipeting instrument. Serially diluted compounds were mixed with cell culture media and added to the seeded cells. […] 72 hours later, cells were lysed and Renilla luciferase activity quantified as recommended by the manufacturer (Promega-Madison, Wis.). Non-linear regression was performed to calculate EC50 values.

[7] = read-out: 3a, genotype 3a replicon
[8] = 72 h, Table 2, genotype 1a H77 replicon, 72 hours
[9] = read-out: 3a, Table 2, genotype 3a NS5A chimeric replicon

Row | SMILES | pEC50 ([1]; genotype 1a replicon) | EC50 [2] [nM] | pEC50 [3] | pEC50 [4, 7] | pEC50 [5] | pEC50 [6] | pEC50 [1, 8] | EC50 ([2]; 72 h) [nM] | pEC50 ([3]; 72 h, Table 2, 72 hours) | pEC50 [4, 9] | pEC50 ([1]; 72 h, Table 1, genotype 1a H77 replicon, 72 hours) | pEC50 ([3]; 72 h, Table 1, 72 hours) | pEC50 ([4]; read-out: 3a, Table 1, genotype 3a NS5A chimeric replicon)
1 | COC(=O)N[C@H](C(=O)N1[C@@H]2C[C@@H]2C[C@H]1c1ncc(-c2ccc(-c3ccc4c(ccc5nc([C@@H]6C[C@H]7C[C@H]7N6C(=O)[C@@H](NC(=O)OC)C(C)C)[nH]c54)c3)cc2F)[nH]1)C(C)C [Example 390] | 9.00 to 12.00 | 0.003 | 9.00 to 12.00 | 8.30 to 9.00 | 9.00 to 12.00 | < 7.36 |  |  |  |  |  |  | 
2 | COC(=O)N[C@H](C(=O)N1CCC[C@H]1c1nc2ccc3cc(-c4ccc(-c5cnc([C@@H]6[C@H]7CC[C@H](C7)N6C(=O)[C@H](NC(=O)OC)c6ccccc6)[nH]5)cc4)ccc3c2[nH]1)C(C)C [Example 54] |  |  |  |  | 9.00 to 12.00 | < 7.36 | 9.00 to 12.00 | 0.014 | 9.00 to 12.00 | 9.00 to 12.00 |  |  | 
3 | COC(=O)N[C@H](C(=O)N1CCC[C@H]1c1nc2ccc3cc(-c4ccc(-c5cnc([C@@H]6[C@H]7CC[C@H](C7)N6C(=O)[C@@H](NC(=O)OC)C(C)C)[nH]5)cc4)ccc3c2[nH]1)C(C)C [Example 53] |  |  |  |  | 9.00 to 12.00 | < 7.36 | 9.00 to 12.00 | 0.01 | 9.00 to 12.00 | 9.00 to 12.00 |  |  | 
4 | COC(=O)N[C@H](C(=O)N1CCC[C@H]1c1ncc(-c2cc3c4c(c2)COc2cc(-c5cnc([C@@H]6CCCN6C(=O)[C@@H](NC(=O)OC)C(C)C)[nH]5)cc(c2-4)OC3)[nH]1)C(C)C [Example 319] | 9.00 to 12.00 | 0.021 | 9.00 to 12.00 | 9.00 to 12.00 | 9.00 to 12.00 | 9.00 to 12.00 |  |  |  |  |  |  | 
5 | COC(=O)NC(C(=O)N1CCC[C@H]1c1ncc(-c2ccc(-c3ccc4c(ccc5nc([C@@H]6[C@H]7CC[C@H](C7)N6C(=O)[C@@H](NC(=O)OC)C(C)C)[nH]c54)c3)cc2)[nH]1)C(C)C (stereo partly drawn) [Example 65] |  |  |  |  | 9.00 to 12.00 | < 7.36 | 9.00 to 12.00 | 0.015 | 9.00 to 12.00 | 9.00 to 12.00 |  |  | 
6 | COC(=O)N[C@H](C(=O)N1[C@@H]2CC[C@@H](C2)[C@H]1c1nc(Cl)c(-c2ccc(-c3ccc4c(ccc5nc([C@@H]6C[C@H]7C[C@H]7N6C(=O)[C@@H](NC(=O)OC)C(C)C)[nH]c54)c3)cc2)[nH]1)C(C)C [Example 381] | 9.00 to 12.00 | 0.008 | 9.00 to 12.00 | 9.00 to 12.00 | 9.00 to 12.00 | < 7.36 |  |  |  |  |  |  | 
7 | COC(=O)N[C@H](C(=O)N1[C@@H]2CC[C@@H](C2)[C@H]1c1nc2ccc3cc(-c4ccc5c(ccc6nc([C@@H]7C[C@H]8C[C@H]8N7C(=O)[C@@H](NC(=O)OC)C(C)C)[nH]c65)c4)ccc3c2[nH]1)C(C)C [Example 405] | 9.00 to 12.00 | 0.009 | 9.00 to 12.00 | 9.00 to 12.00 | 9.00 to 12.00 | 7.36 to 9.00 |  |  |  |  |  |  | 
8 | COC(=O)N[C@H](C(=O)N1CCC[C@H]1c1ncc(-c2cc3c4c(c2)OCc2cc(-c5cnc([C@@H]6CCCN6C(=O)[C@@H](NC(=O)OC)C6CCOCC6)[nH]5)cc(c2-4)OC3)[nH]1)C(C)C [Example 25b] |  |  |  |  | 9.00 to 12.00 | 7.36 to 9.00 |  | 0.176 |  |  | 9.00 to 12.00 | 9.00 to 12.00 | 9.00 to 12.00
9 | COC(=O)N[C@H](C(=O)N1CCC[C@H]1c1nc(Cl)c(-c2cc3c4c(c2)OCc2cc(-c5[nH]c([C@@H]6CCCN6C(=O)[C@H](NC(=O)OC)c6ccccc6)nc5Cl)cc(c2-4)OC3)[nH]1)C(C)C [Example 399] | 9.00 to 12.00 | 0.017 | 9.00 to 12.00 | 9.00 to 12.00 | 9.00 to 12.00 | 9.00 to 12.00 |  |  |  |  |  |  | 
10 | COC(=O)N[C@H](C(=O)N1[C@@H]2CC[C@@H](C2)[C@H]1c1nc2ccc3cc(-c4ccc(-c5cnc([C@@H]6C[C@H]7C[C@H]7N6C(=O)[C@@H](NC(=O)OC)C6CCOCC6)[nH]5)c(F)c4)ccc3c2[nH]1)C(C)C [Example 392] | 9.00 to 12.00 | 0.022 | 9.00 to 12.00 | 8.30 to 9.00 | 9.00 to 12.00 | < 7.36 |  |  |  |  |  |  | 
11 | COC(=O)N[C@H](C(=O)N1CCC[C@H]1c1nc(Cl)c(-c2ccc3c(c2)OCc2c-3ccc(-c3[nH]c([C@@H]4CCCN4C(=O)[C@@H](NC(=O)OC)C(C)C)nc3Cl)c2F)[nH]1)C(C)C [Example 404] | 9.00 to 12.00 | 0.008 | 9.00 to 12.00 | 9.00 to 12.00 | 9.00 to 12.00 | < 7.36 |  |  |  |  |  |  | 
12 | COC(=O)NC(C(=O)N1CCC[C@H]1c1ncc(-c2ccc(-c3ccc4c(ccc5nc([C@@H]6[C@H]7CC[C@H](C7)N6C(=O)[C@@H](NC(=O)OC)[C@@H](C)OC)[nH]c54)c3)cc2)[nH]1)C(C)C (stereo partly drawn) [Example 66] |  |  |  |  | 9.00 to 12.00 | < 7.36 | 9.00 to 12.00 | 0.022 | 9.00 to 12.00 | 9.00 to 12.00 |  |  | 
13 | COC(=O)N[C@H](C(=O)N1[C@@H]2CC[C@@H](C2)[C@H]1c1nc(Cl)c(-c2ccc(-c3ccc4c(ccc5nc([C@@H]6CCCN6C(=O)[C@H](NC(=O)OC)c6ccccc6)[nH]c54)c3)cc2)[nH]1)C(C)C [Example 401] | 9.00 to 12.00 | 0.015 | 9.00 to 12.00 | 9.00 to 12.00 | 9.00 to 12.00 | 7.36 to 9.00 |  |  |  |  |  |  | 
14 | COC(=O)N[C@H](C(=O)N1CCC[C@H]1c1ncc(-c2ccc3c(c2)COc2cc(-c4cnc([C@@H]5CCCN5C(=O)[C@@H](NC(=O)OC)C(C)C)[nH]4)cc(F)c2-3)[nH]1)C(C)C [Example 393] | 9.00 to 12.00 | 0.012 | 9.00 to 12.00 | 9.00 to 12.00 | 9.00 to 12.00 | < 7.36 |  |  |  |  |  |  | 
15 | COC(=O)N[C@H](C(=O)N1[C@@H]2CC[C@@H](C2)[C@H]1c1nc2ccc3cc(-c4ccc5c(ccc6nc([C@@H]7CCCN7C(=O)[C@H](NC(=O)OC)c7ccccc7)[nH]c65)c4)ccc3c2[nH]1)C1CCOCC1 [Example 345] | 9.00 to 12.00 | 0.066 | 9.00 to 12.00 | 9.00 to 12.00 | 9.00 to 12.00 | 9.00 to 12.00 |  |  |  |  |  |  | 
16 | COC(=O)N[C@H](C(=O)N1CCC[C@H]1c1nc2ccc3cc(-c4ccc(-c5cnc([C@@H]6CC7(CN6C(=O)[C@H](C(C)C)C(C)C(=O)OC)OCCO7)[nH]5)cc4)ccc3c2[nH]1)[C@@H](C)OC (stereo partly drawn) [Example 80] |  |  |  |  | 9.00 to 12.00 | < 7.36 | 9.00 to 12.00 | 0.072 | 9.00 to 12.00 | 9.00 to 12.00 |  |  | 
